Key:
HeLa cells [1] = experiment: Transfection in HeLa cells, human EPO modRNA (EPO ELISA of supernatant); format: cell-based; settings: Table 22, 18 h to 22 h
Method: (§1) The day before transfection, 20.000 HeLa cells (ATCC no. CCL-2; Manassas, Va.) were harvested by treatment with Trypsin-EDTA solution (LifeTechnologies, Grand Island, N.Y.) and seeded in a total volume of 100 ul EMEM medium (supplemented with 10% FCS and 1× Glutamax) per well in a 96-well cell culture plate (Corning, Manassas, Va.). The cells were grown at 37° C. in 5% CO2 atmosphere overnight. Next day, 83 ng of Luciferase modRNA or 250 ng of human GCSF modRNA, harboring chemical modifications on the bases or the ribose units, were diluted in 10 ul final volume of OPTI-MEM (LifeTechnologies, Grand Island, N.Y.). Lipofectamine 2000 (LifeTechnologies, Grand Island, N.Y.) was used as transfection reagent and 0.2 μl were diluted in 10 ul final volume of OPTI-MEM. After 5 min incubation at room temperature, both solutions were combined and incubated additional 15 min at room temperature. Then the 20 μl were added to the 100 ul cell culture medium containing the HeLa cells. The plates were then incubated as described before.
(§2) After 18 h to 22 h incubation, cell culture supernatants of cells expressing human GCSF or human EPO were collected and centrifuged at 10.000 rcf for 2 min. The cleared supernatants were transferred and analyzed with a human GCSF-specific or EPO ELISA kit (both from R&D Systems, Minneapolis, Minn.; Cat. #s SCS50, DEP00, respectively) according to the manufacturer instructions. All samples were diluted until the determined values were within the linear range of the human GCSF or EPO ELISA standard curve.

[2] = test system: Rabbit Reticulocyte Lysate; experiment: In vitro translation screen, firefly Luciferase modRNA (luciferase assay, relative light units); format: biochemical; settings: Table 20; 250 ng modRNA, 45 min, 30° C.
Method: (§3) The in vitro translation assay was done with the Rabbit Reticulocyte Lysate (nuclease-treated) kit (Promega, Madison, Wis.; Cat. #L4960) according to the manufacturer's instructions. The reaction buffer was a mixture of equal amounts of the amino acid stock solutions devoid of Leucine or Methionine provided in the kit.
(§4) The modRNAs of firefly Luciferase, human GCSF and human EPO, harboring chemical modifications on either the bases or the ribose units, were diluted in sterile nuclease-free water to a final concentration of 250 ng in 2.5 ul (Stock 100 ng/μl). The modRNA (250 ng) was added to the mixture of freshly prepared Rabbit Reticulocyte Lysate and reaction buffer.
After 45 min incubation, the reaction was stopped by placing the plate on ice. Aliquots of the in vitro translation reaction containing luciferase modRNA were transferred to white opaque polystyrene 96-well plates (Corning, Manassas, Va.; Cat. # CLS3912) and combined with 100 ul complete luciferase assay solution (Promega, Madison, Wis.). The volumes of the in vitro translation reactions were adjusted or diluted until no more than 2 million relative light units per well were detected for the strongest signal producing samples. […] The plate reader was a BioTek Synergy H1 (BioTek, Winooski, Vt.).

[3] = test system: Rabbit Reticulocyte Lysate; experiment: In vitro translation screen, human EPO modRNA (EPO ELISA); format: biochemical; settings: Table 20; 250 ng modRNA, 45 min, 30° C.
Method: as §3, §4
(§5) Aliquots of the in vitro translation reaction containing human GCSF modRNA or human EPO mRNA were transferred and analyzed with a human GCSF-specific or EPO ELISA kit (both from R&D Systems, Minneapolis, Minn.; Cat. #s SCS50, DEP00 respectively) according to the manufacturer instructions. All samples were diluted until the determined values were within the linear range of the human GCSF or EPO ELISA standard curve.

[4] = test system: Rabbit Reticulocyte Lysate; experiment: In vitro translation screen, human GCSF modRNA (GCSF ELISA); format: biochemical; settings: Table 20; 250 ng modRNA, 45 min, 30° C.
Method: as §3, §4, §5

T7 RNA polymerase = T7 RNA polymerase (Escherichia phage T7, UniProt P00573); experiment: In vitro transcription yields of modified mRNA; format: biochemical; settings: for EPO In Vitro Transcription yield: EPO mRNA made with the modified NTP(s); for GCSF In Vitro Transcription yield: GCSF mRNA made with the modified NTP(s); for Luc In Vitro Transcription yield: Luciferase mRNA made with the modified NTP(s)
Chain of T7 RNA polymerase (P00573 whole entry): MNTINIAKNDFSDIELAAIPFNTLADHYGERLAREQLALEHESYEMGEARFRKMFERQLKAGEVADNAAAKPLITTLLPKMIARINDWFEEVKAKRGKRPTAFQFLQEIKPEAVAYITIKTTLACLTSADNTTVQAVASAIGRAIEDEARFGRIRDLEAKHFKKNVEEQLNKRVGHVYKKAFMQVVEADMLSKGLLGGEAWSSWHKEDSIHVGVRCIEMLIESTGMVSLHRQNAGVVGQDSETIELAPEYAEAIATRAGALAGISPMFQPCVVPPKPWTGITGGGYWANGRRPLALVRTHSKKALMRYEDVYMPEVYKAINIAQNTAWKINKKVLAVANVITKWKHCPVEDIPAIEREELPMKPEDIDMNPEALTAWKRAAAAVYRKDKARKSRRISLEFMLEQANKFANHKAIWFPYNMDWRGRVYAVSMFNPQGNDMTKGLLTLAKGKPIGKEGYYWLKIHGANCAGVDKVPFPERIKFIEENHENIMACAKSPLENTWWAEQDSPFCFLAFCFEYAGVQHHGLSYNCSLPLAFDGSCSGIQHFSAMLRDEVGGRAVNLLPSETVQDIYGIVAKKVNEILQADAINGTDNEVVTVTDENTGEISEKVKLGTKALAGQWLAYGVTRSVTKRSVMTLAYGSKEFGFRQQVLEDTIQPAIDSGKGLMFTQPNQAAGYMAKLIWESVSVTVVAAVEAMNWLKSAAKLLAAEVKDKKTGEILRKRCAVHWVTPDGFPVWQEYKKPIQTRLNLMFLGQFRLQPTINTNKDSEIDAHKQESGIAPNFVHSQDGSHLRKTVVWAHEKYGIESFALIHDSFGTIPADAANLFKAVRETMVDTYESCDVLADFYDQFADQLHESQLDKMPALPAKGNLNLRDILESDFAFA
Method: The in vitro transcription reaction generates mRNA containing modified nucleotides or modified RNA. The input nucleotide triphosphate (NTP) mix is made in-house using natural and unnatural NTPs.
A typical in vitro transcription reaction includes the following:
Incubation at 37° C. for 3 hr-5 hrs.
The crude IVT mix may be stored at 4° C. overnight for cleanup the next day. 1 U of RNase-free DNase is then used to digest the original template. After 15 minutes of incubation at 37° C., the mRNA is purified using Ambion's […]™ Kit (Austin, Tex.) following the manufacturer's instructions. This kit can purify up to 500 μg of RNA. Following the cleanup, the RNA is quantified using the NanoDrop and analyzed by agarose gel electrophoresis to confirm the RNA is the proper size and that no degradation of the RNA has occurred.
Modified mRNAs in TE buffer (1 μl) are used for Nanodrop UV absorbance readings to quantitate the yield of each modified mRNA from an in vitro transcription reaction (UV absorbance traces are not shown).

HeLa cells [5] = experiment: Transfection in HeLa cells, human GCSF modRNA (GCSF ELISA of supernatant); format: cell-based; settings: Table 22, 250 ng modRNA, 18 h to 22 h
Method: as §1, §2

HeLa cells [6] = experiment: Transfection in HeLa cells, Luciferase modRNA (luciferase assay, relative light units); format: cell-based, human; settings: Table 22, 83 ng modRNA, Lipofectamine 2000, 18 h to 22 h
Method: as §1
After 18 h to 22 h incubation, cells expressing luciferase were lysed with 100 μl Passive Lysis Buffer (Promega, Madison, Wis.) according to manufacturer instructions. Aliquots of the lysates were transferred to white opaque polystyrene 96-well plates (Corning, Manassas, Va.) and combined with 100 ul complete luciferase assay solution (Promega, Madison, Wis.). The lysate volumes were adjusted or diluted until no more than 2 mio relative light units per well were detected for the strongest signal producing samples. […] The plate reader was a BioTek Synergy H1 (BioTek, Winooski, Vt.).

Structure (SMILES)	Epo Expression (HeLa cells [1]) [pg/mL]	Luc Expression (RLUs) [2] [RLUs]	Epo Expression [3] [pg/mL]	GCSF Expression [4] [pg/mL]	EPO In Vitro Transcription yield (T7 RNA polymerase) [mg]	GCSF In Vitro Transcription yield (T7 RNA polymerase) [mg]	Luc In Vitro Transcription yield (T7 RNA polymerase) [mg]	GCSF Expression (HeLa cells [5]) [pg/mL]	Luc Expression (RLUs) (HeLa cells [6])
Cc1cn([C@@H]2O[C@H](COP(=O)(O)OP(=O)(O)OP(=O)(O)O)C(O)C2O)c(=S)[nH]c1=O (stereo in doubt) [00901013004 (4), 5-Methyl-2-thio-UTP]	8333	235	1100	2319	0.8717	0.4682	0.7580	16420	–
COC(=O)COc1cn([C@@H]2O[C@H](COP(=O)(O)OP(=O)(O)OP(=O)(O)O)C(O)C2O)c(=O)[nH]c1=O (stereo in doubt) [00901013004 (348), UTP-5-oxyacetic acid Me ester]	8333	162	544	4388	0.3859	0.3836	0.6348	5714	–
Nc1nc(=O)n([C@@H]2O[C@H](COP(=O)(O)OP(=O)(O)OP(=O)(O)O)C(O)C2O)cc1C(F)(F)F (stereo in doubt) [00901014003 (351), 5-Trifluoromethyl-CTP]	668100	23340	10200	31510	0.7886	0.7710	0.5097	1039000	32250
Nc1ncc2ncn([C@@H]3O[C@H](COP(=O)(O)OP(=O)(O)OP(=O)(O)O)C(O)C3O)c2n1 (stereo in doubt) [03601012004 (382), 2-Aminopurine-riboside TP]	56980	107000	22180	8675	0.0125	0.2919	0.0690	39290	713.50
NC/C=C/c1cn([C@@H]2O[C@H](COP(=O)(O)OP(=O)(O)OP(=O)(O)O)C(O)C2O)c(=O)nc1N (stereo in doubt) [03601014009 (381), 5-Aminoallyl-CTP]	3488	887	169	1806	0.4943	0.4567	0.3471	24290	319.00
CCn1cc([C@@H]2O[C@H](COP(=O)(O)OP(=O)(O)OP(=O)(O)O)C(O)C2O)c(=O)[nH]c1=O (stereo in doubt) [03601015003 (172), 1-Ethyl-pseudo-UTP]	52780	122	7894	5700	1.095	0.5464	0.6304	209300	130.50
CCCn1cc([C@@H]2O[C@H](COP(=O)(O)OP(=O)(O)OP(=O)(O)O)C(O)C2O)c(=O)[nH]c1=O (stereo in doubt) [03601015004 (173), 1-Propyl-pseudo-UTP]	0.00	140	838	1613	0.9920	0.5976	0.4971	10000	–
O=c1ccn([C@@H]2O[C@H](COP(=O)(O)OP(=O)(O)OP(=O)(O)O)C(O)C2O)c(=S)[nH]1 (stereo in doubt) [Compound 00901013008, 2-Thio-UTP]	182600	1181	1894	3744	0.3630	0.3359	0.2792	214300	423.00
O=c1[nH]c(=O)n([C@@H]2O[C@H](COP(=O)(O)OP(=O)(O)OP(=O)(O)O)C(O)C2O)cc1Br (stereo in doubt) [Compound 00901013009, 5-Bromo-UTP]	210500	218500	18220	21530	0.2617	0.3566	0.3352	118600	2731
NC/C=C/c1cn([C@@H]2O[C@H](COP(=O)(O)OP(=O)(O)OP(=O)(O)O)C(O)C2O)c(=O)[nH]c1=O (stereo in doubt) [Compound 00901013010, 5-Aminoallyl-UTP]	67440	14870	1863	3706	0.3732	0.4206	0.3513	40710	1946
O=c1ccn([C@@H]2O[C@H](COP(O)(=S)OP(=O)(O)OP(=O)(O)O)C(O)C2O)c(=O)[nH]1 (stereo in doubt) [Compound 00902013001, Alpha-thio-UTP]	190700	51180	14260	20530	0.2666	0.2605	0.3510	73570	937.0
